Like-named read-outs stand apart in the source and are kept apart here. Numbered stars: 1 amine (or outer) side, 2 acyl side, 3 side chain; on linkers, the order of the positions; unused ones are H or OH. Bridge positions count the residues as written; N and C are the ends. Side chains are listed from the residue outwards. Peptide text beside a SMILES is read from it. * marks the point of attachment. C20 diacid = O=C(O)CCCCCCCCCCCCCCCCCCC(=O)*; γGlu = O=C(O)[C@H](CCC(=O)[*:2])N[*:1]; AEEA = NCCOCCOCC(=O)O
How the values were obtained:
[1] = target: T1, human amylin receptor (amylin 3(a) receptor: human calcitonin receptor + RAMP-3) (Homo sapiens, UniProt O60896+P30988); assay: Assay (II)a functional assay, human amylin receptor (CRE luciferase, BHK cells); format: cell-based; conditions: for EC50: functional assay, human amylin receptor, read-out: hAmylin-R funct. EC50
T1 construct: expressed in transfected cells
T1 sequence (P30988 25-474): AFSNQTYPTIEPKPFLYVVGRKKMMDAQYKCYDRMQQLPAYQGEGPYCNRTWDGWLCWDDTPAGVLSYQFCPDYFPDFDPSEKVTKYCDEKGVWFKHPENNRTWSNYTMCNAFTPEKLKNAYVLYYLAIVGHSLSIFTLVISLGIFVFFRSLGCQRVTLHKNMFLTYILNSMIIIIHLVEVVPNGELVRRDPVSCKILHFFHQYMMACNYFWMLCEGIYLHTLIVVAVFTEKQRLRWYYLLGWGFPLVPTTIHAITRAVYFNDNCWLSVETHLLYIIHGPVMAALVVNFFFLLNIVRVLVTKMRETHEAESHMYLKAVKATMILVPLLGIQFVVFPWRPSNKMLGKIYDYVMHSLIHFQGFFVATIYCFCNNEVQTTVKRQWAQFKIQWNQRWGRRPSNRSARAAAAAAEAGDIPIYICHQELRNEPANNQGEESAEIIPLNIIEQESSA
T1 sequence (O60896 24-148 partner): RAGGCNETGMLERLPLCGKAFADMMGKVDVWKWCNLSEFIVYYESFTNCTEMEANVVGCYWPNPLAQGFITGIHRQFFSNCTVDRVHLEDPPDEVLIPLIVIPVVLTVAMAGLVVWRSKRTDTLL

[2] = target: T2, human calcitonin receptor (Homo sapiens, UniProt P30988); assay: Assay (II)a functional assay, human calcitonin receptor (CRE luciferase, BHK cells);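 note: luminescence from a CRE-driven luciferase reporter, read by single photon counting after cells were exposed to test samples for 3 h at 37 °C under 5% CO2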; format: cell-based; conditions: read-out: hCTR funct. EC50
T2 construct: expressed in transfected cells
T2 sequence (P30988 25-474): T1 sequence (P30988 25-474)

[3] = target: T3, human amylin receptor (Homo sapiens, UniProt O60896+P30988); assay: Assay (V) binding to the human amylin receptor (SPA, 125I-rat amylin); conditions: for IC50: read-out: hAmylin-R bind IC50; for Ratio hCT/hAmylin binding: human binding ratio, included for comparison
T3 construct: expressed in transfected cells
T3 sequence (P30988 25-474): T1 sequence (P30988 25-474)
T3 sequence (O60896 24-148 partner): T1 sequence (O60896 24-148 partner)
How it was run: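 IC50, taken as receptor affinity, came from one-site binding competition analysis of scintillation proximity counts. Amylin 3(a)/CRE-luc cell membranes (35 ng/μL final) were mixed with SPA beads (0.05 mg/well) in 50 mM Hepes pH 7.4 containing CaCl2, MgCl2, 0.1% OA and 0.02% Tween20.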

[4] = target: T4, rat amylin receptor (Rattus norvegicus, UniProt P32214+Q9JJ73); assay: Assay (VI) binding to the rat amylin receptor; conditions: rCTR bind IC50 divided by rAmylin-R bind IC50
T4 construct: expressed in transfected cells; host or cells: BHK tk'ts 13 (transient, FuGENE 6), membranes
T4 sequence (P32214 25-479 isoform P32214-2 limits assumed): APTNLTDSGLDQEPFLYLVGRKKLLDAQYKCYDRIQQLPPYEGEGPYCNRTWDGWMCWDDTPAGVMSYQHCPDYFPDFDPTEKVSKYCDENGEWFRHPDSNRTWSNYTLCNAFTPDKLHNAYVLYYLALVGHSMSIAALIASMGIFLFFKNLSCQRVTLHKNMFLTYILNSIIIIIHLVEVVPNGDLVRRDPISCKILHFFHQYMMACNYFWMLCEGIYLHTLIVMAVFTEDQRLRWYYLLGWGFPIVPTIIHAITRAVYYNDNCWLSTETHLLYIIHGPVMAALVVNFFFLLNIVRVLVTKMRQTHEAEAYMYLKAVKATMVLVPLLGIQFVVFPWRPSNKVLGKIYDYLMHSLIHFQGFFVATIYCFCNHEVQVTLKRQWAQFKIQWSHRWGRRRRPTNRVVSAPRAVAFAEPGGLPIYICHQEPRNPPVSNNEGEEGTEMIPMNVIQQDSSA
T4 sequence (Q9JJ73 23-147 partner): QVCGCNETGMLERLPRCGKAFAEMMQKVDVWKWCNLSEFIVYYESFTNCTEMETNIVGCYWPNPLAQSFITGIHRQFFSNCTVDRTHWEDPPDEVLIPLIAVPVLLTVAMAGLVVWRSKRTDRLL
Procedure: Assay (VI)—Determination of the Binding to the Rat Amylin Receptor
The assay was performed as described above (Assay (V)—Determination of binding to the human amylin receptor) with the exception that we used membranes prepared from BHK tk'ts 13 cells that were transiently transfected with the rat calcitonin receptor rat RAMP 3 at an equimolar ratio […]. The BHK tk'ts 13 cells were transiently transfected with rat calcitonin receptor using FuGENE® 6 (Roche), according to the manufacturer's recommendations. Cells were grown in DMEM with 10% FBS and 1% Pen/Strep. Approximately 48 hours after transfection, the cells were harvested and membranes were prepared.

[5] = target: T2, human calcitonin receptor; assay: Assay (VII) binding to the human calcitonin receptor (SPA, 125I-Calcitonin); conditions: read-out: hCTR bind IC50;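 note: cell membranes coupled to SPA beads, competitive displacement read by scintillation counting, IC50 derived from a one-site competition fit as a measure of receptor affinity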
[6] = Table 6, human functional selectivity (hCTR EC50 / hAmylin-R EC50)
[7] = human amylin receptor membranes, SPA

| Ratio hCT/hAmylin funct. [1, 6] | EC50 [1] [nM] | Ratio hCT/hAmylin funct. ([1]; hCTR funct. EC50 divided by hAmylin-R funct. EC50) | EC50 [2] [nM] | IC50 ([3]; binding to human amylin receptor) [nM] | IC50 [3, 7] [nM] | Ratio hCT/hAmylin binding [3] | Ratio rCT/rAmylin binding [4] | IC50 [5] [nM] | Structure (SMILES) |
| --- | --- | --- | --- | --- | --- | --- | --- | --- | --- |
| 1.0 | 0.162 | 1.0 | 0.16 | 0.374 | 0.374 | 1.4 | 3.6 | 0.537 | CC(C)C[C@H](NC(=O)[C@H](CCCNC(=N)N)NC(=O)[C@H](CCC(N)=O)NC(=O)[C@@H](NC(=O)[C@H](C)NC(=O)[C@@H]1CSSC[C@H](NC(=O)[C@H](CCCCN)NC(=O)CC[C@H](NC(=O)CCCCCCCCCCCCCCCCCCC(=O)O)C(=O)O)C(=O)N[C@@H](CC(N)=O)C(=O)N[C@@H]([C@@H](C)O)C(=O)N[C@@H](C)C(=O)N[C@@H]([C@@H](C)O)C(=O)N1)[C@@H](C)O)C(=O)N[C@@H](C)C(=O)N[C@@H](CCC(=O)O)C(=O)N[C@@H](Cc1ccccc1)C(=O)N[C@@H](CC(C)C)C(=O)N[C@@H](CCCNC(=N)N)C(=O)N[C@@H](Cc1c[nH]cn1)C(=O)N[C@@H](CO)C(=O)N[C@@H](CO)C(=O)N1CCC[C@H]1C(=O)N[C@@H](CC(N)=O)C(=O)N[C@@H](Cc1ccccc1)C(=O)NCC(=O)N[C@@H](C)C(=O)N1CCC[C@H]1C(=O)N[C@@H](CC(C)C)C(=O)N[C@@H](CO)C(=O)N[C@@H](CO)C(=O)N[C@H](C(=O)N[C@@H](CC(N)=O)C(=O)N[C@H](C(=O)NCC(=O)N[C@@H](CO)C(=O)N[C@@H](CC(N)=O)C(=O)N[C@H](C(=O)N1CCC[C@H]1C(N)=O)[C@@H](C)O)C(C)C)[C@@H](C)O [Example 5] ({C20 diacid-γGlu}-KCNTATCATQRLAEFLRHSSPNFGAPLSSTNVGSNTP-NH2; disulfide 2-7) |
| 1.8 | 0.101 | – | 0.185 | – | 0.142 | 2.5 | 5.0 | 0.353 | CC[C@H](C)[C@H](NC(=O)[C@H](C)NC(=O)CNC(=O)[C@H](Cc1ccccc1)NC(=O)[C@H](CC(N)=O)NC(=O)[C@@H]1CCCN1C(=O)[C@H](CO)NC(=O)[C@H](CO)NC(=O)[C@H](Cc1c[nH]cn1)NC(=O)[C@H](CCCNC(=N)N)NC(=O)[C@H](CC(C)C)NC(=O)[C@H](Cc1ccccc1)NC(=O)[C@H](CCC(=O)O)NC(=O)[C@H](C)NC(=O)[C@H](CC(C)C)NC(=O)[C@H](CCCNC(=N)N)NC(=O)[C@H](CCC(N)=O)NC(=O)[C@@H](NC(=O)[C@H](C)NC(=O)[C@@H]1CSSC[C@H](NC(=O)[C@@H](N)CCCCNC(=O)CC[C@H](NC(=O)CCCCCCCCCCCCCCCCCCC(=O)O)C(=O)O)C(=O)N[C@@H](CC(N)=O)C(=O)N[C@@H]([C@@H](C)O)C(=O)N[C@@H](C)C(=O)N[C@@H]([C@@H](C)O)C(=O)N1)[C@@H](C)O)C(=O)N1CCC[C@H]1C(=O)N[C@@H](CO)C(=O)N[C@@H](CO)C(=O)N[C@H](C(=O)N[C@@H](CC(N)=O)C(=O)N[C@H](C(=O)NCC(=O)N[C@@H](CO)C(=O)N[C@@H](CC(N)=O)C(=O)N[C@H](C(=O)N1CCC[C@H]1C(N)=O)[C@@H](C)O)C(C)C)[C@@H](C)O [Example 12] (H-K([γGlu-C20 diacid])CNTATCATQRLAEFLRHSSPNFGAIPSSTNVGSNTP-NH2; disulfide 2-7) |
| 3.6 | – | – | – | – | – | 3.6 | 6.4 | – | CC[C@H](C)[C@H](NC(=O)[C@H](C)NC(=O)CNC(=O)[C@H](Cc1ccccc1)NC(=O)[C@H](CC(N)=O)NC(=O)[C@@H]1CCCN1C(=O)[C@H](CO)NC(=O)[C@H](CO)NC(=O)[C@H](Cc1c[nH]cn1)NC(=O)[C@H](CCCNC(=N)N)NC(=O)[C@H](CC(C)C)NC(=O)[C@H](Cc1ccccc1)NC(=O)[C@H](CCC(=O)O)NC(=O)[C@H](C)NC(=O)[C@H](CC(C)C)NC(=O)[C@H](CCCNC(=N)N)NC(=O)[C@H](CCC(N)=O)NC(=O)[C@@H](NC(=O)[C@H](C)NC(=O)[C@@H]1CSSC[C@H](NC(=O)[C@H](CCCCN)NC(=O)COCCOCCNC(=O)COCCOCCNC(=O)CC[C@H](NC(=O)CCCCCCCCCCCCCCCCCCC(=O)O)C(=O)O)C(=O)N[C@@H](CC(N)=O)C(=O)N[C@@H]([C@@H](C)O)C(=O)N[C@@H](C)C(=O)N[C@@H]([C@@H](C)O)C(=O)N1)[C@@H](C)O)C(=O)N1CCC[C@H]1C(=O)N[C@@H](CO)C(=O)N[C@@H](CO)C(=O)N[C@H](C(=O)N[C@@H](CC(N)=O)C(=O)N[C@H](C(=O)NCC(=O)N[C@@H](CO)C(=O)N[C@@H](CC(N)=O)C(=O)N[C@H](C(=O)N1CCC[C@H]1C(N)=O)[C@@H](C)O)C(C)C)[C@@H](C)O [Example 20] ({C20 diacid-γGlu-AEEA-AEEA}-KCNTATCATQRLAEFLRHSSPNFGAIPSSTNVGSNTP-NH2; disulfide 2-7) |
| 0.8 | – | – | – | – | – | 1.2 | 3.0 | – | CC[C@H](C)[C@H](NC(=O)[C@H](C)NC(=O)CNC(=O)[C@H](Cc1ccccc1)NC(=O)[C@H](CC(N)=O)NC(=O)[C@@H]1CCCN1C(=O)[C@H](CO)NC(=O)[C@H](CO)NC(=O)[C@H](Cc1c[nH]cn1)NC(=O)[C@H](CCCNC(=N)N)NC(=O)[C@H](CC(C)C)NC(=O)[C@H](Cc1ccccc1)NC(=O)[C@H](Cc1c[nH]cn1)NC(=O)[C@H](C)NC(=O)[C@H](CC(C)C)NC(=O)[C@H](CCCNC(=N)N)NC(=O)[C@H](CCC(N)=O)NC(=O)[C@@H](NC(=O)[C@H](C)NC(=O)[C@@H]1CSSC[C@H](NC(=O)[C@@H](N)CCCCNC(=O)CC[C@H](NC(=O)CCCCCCCCCCCCCCCCCCC(=O)O)C(=O)O)C(=O)N[C@@H](CC(N)=O)C(=O)N[C@@H]([C@@H](C)O)C(=O)N[C@@H](C)C(=O)N[C@@H]([C@@H](C)O)C(=O)N1)[C@@H](C)O)C(=O)N1CCC[C@H]1C(=O)N[C@@H](CO)C(=O)N[C@@H](CO)C(=O)N[C@H](C(=O)N[C@@H](CC(N)=O)C(=O)N[C@H](C(=O)NCC(=O)N1CCC[C@H]1C(=O)N[C@@H](CC(N)=O)C(=O)N[C@H](C(=O)N1CCC[C@H]1C(N)=O)[C@@H](C)O)C(C)C)[C@@H](C)O [Example 115] (H-K([γGlu-C20 diacid])CNTATCATQRLAHFLRHSSPNFGAIPSSTNVGPNTP-NH2; disulfide 2-7 (inferred); N-terminus and C-terminus assumed) |
